# Experimental data reported in ChEMBL document CHEMBL4316596, “Antimicrobial Peptides with High Proteolytic Resistance for Combating Gram-Negative Bacteria” (J Med Chem, 2019).
# System: Pseudomonas aeruginosa
# Assay: Antimicrobial activity against Pseudomonas aeruginosa CICC 21630 clinical isolates after 24 hrs by NCCLS-protocol based assay
# Type: functional
# Conditions: CICC 21630, 24 h
row,Substance,MIC95 [µM]
1,H-LKPLLKPLLKPLLKPL-NH2,> 64
2,H-LKPLLKPLLKPLLKPLLKPL-NH2,32

# System: Pseudomonas aeruginosa
# Assay: Antimicrobial activity against Pseudomonas aeruginosa 26305 clinical isolates after 24 hrs by NCCLS-protocol based assay
# Type: functional
# Conditions: Pseudomonas aeruginosa, 26305, 24 h
row,Substance,MIC95 [µM]
1,H-LKPLLKPLLKPLLKPL-NH2,> 64
2,H-LKPLLKPLLKPLLKPLLKPL-NH2,32

# System: Pseudomonas aeruginosa
# Assay: Bactericidal activity against Pseudomonas aeruginosa 26305 clinical isolates incubated for 4 hrs followed by culture spread on agar plates and cultured overnight
# Type: functional
# Conditions: Pseudomonas aeruginosa, 26305, 4 h; read-out: MBC>99.9
row,Substance,MBC [µM]
1,H-LKPLLKPLLKPLLKPL-NH2,> 64
2,H-LKPLLKPLLKPLLKPLLKPL-NH2,64

# System: Escherichia coli
# Assay: Bactericidal activity against Escherichia coli ATCC 25922 incubated for 4 hrs followed by culture spread on agar plates and cultured overnight
# Type: functional
# Conditions: ATCC 25922, 4 h, read-out: MBC>99.9
row,Substance,MBC [µM]
1,H-LKPLLKPLLKPLLKPL-NH2,32
2,H-LKPLLKPLLKPLLKPLLKPL-NH2,4

# System: Escherichia coli
# Assay: Antimicrobial activity against Escherichia coli 078 after 24 hrs by NCCLS-protocol based assay
# Type: functional
# Conditions: Escherichia coli, 078, 24 h
row,Substance,MIC95 [µM]
1,H-LKPLLKPLLKPLLKPL-NH2,32
2,H-LKPLLKPLLKPLLKPLLKPL-NH2,4

# System: Pseudomonas aeruginosa
# Assay: Bactericidal activity against Pseudomonas aeruginosa ATCC 27853 incubated for 4 hrs followed by culture spread on agar plates and cultured overnight
# Type: functional
# Conditions: ATCC 27853, 4 h, read-out: MBC>99.9
row,Substance,MBC [µM]
1,H-LKPLLKPLLKPLLKPL-NH2,> 64
2,H-LKPLLKPLLKPLLKPLLKPL-NH2,16

# System: Escherichia coli
# Assay: Bactericidal activity against Escherichia coli K88 incubated for 4 hrs followed by culture spread on agar plates and cultured overnight
# Type: functional
# Conditions: K88, 4 h, read-out: MBC>99.9
row,Substance,MBC [µM]
1,H-LKPLLKPLLKPLLKPL-NH2,16
2,H-LKPLLKPLLKPLLKPLLKPL-NH2,2

# System: not listed separately
# Assay: Antimicrobial activity against Salmonella pullorum C7913 after 24 hrs by NCCLS-protocol based assay
# Type: functional, Salmonella enterica subsp. enterica serovar Pullorum
# Conditions: Salmonella enterica, C7913, 24 h
row,Substance,MIC95 [µM]
1,H-LKPLLKPLLKPLLKPL-NH2,32
2,H-LKPLLKPLLKPLLKPLLKPL-NH2,4

# System: not listed separately
# Assay: Bactericidal activity against Salmonella pullorum C7913 incubated for 4 hrs followed by culture spread on agar plates and cultured overnight
# Type: functional, Salmonella enterica subsp. enterica serovar Pullorum
# Conditions: Salmonella enterica, C7913, 4 h; read-out: MBC>99.9
row,Substance,MBC [µM]
1,H-LKPLLKPLLKPLLKPL-NH2,64
2,H-LKPLLKPLLKPLLKPLLKPL-NH2,8

# System: Salmonella typhimurium
# Assay: Antimicrobial activity against Salmonella typhimurium ATCC 14028 after 24 hrs by NCCLS-protocol based assay
# Type: functional, Salmonella enterica subsp. enterica serovar Typhimurium
# Conditions: Salmonella enterica, ATCC 14028, 24 h
row,Substance,MIC95 [µM]
1,H-LKPLLKPLLKPLLKPL-NH2,> 64
2,H-LKPLLKPLLKPLLKPLLKPL-NH2,8

# System: Pseudomonas aeruginosa
# Assay: Bactericidal activity against Pseudomonas aeruginosa 25349 clinical isolates incubated for 4 hrs followed by culture spread on agar plates and cultured overnight
# Type: functional
# Conditions: Pseudomonas aeruginosa, 25349, 4 h; read-out: MBC>99.9
row,Substance,MBC [µM]
1,H-LKPLLKPLLKPLLKPL-NH2,> 64
2,H-LKPLLKPLLKPLLKPLLKPL-NH2,64

# System: Klebsiella pneumoniae
# Assay: Antimicrobial activity against Klebsiella pneumoniae after 24 hrs by NCCLS-protocol based assay
# Type: functional
# Conditions: not given
row,Substance,MIC95 [µM]
1,H-LKPLLKPLLKPLLKPL-NH2,> 64
2,H-LKPLLKPLLKPLLKPLLKPL-NH2,32

# System: Escherichia coli
# Assay: Antimicrobial activity against Escherichia coli K99 after 24 hrs by NCCLS-protocol based assay
# Type: functional
# Conditions: K99, 24 h
row,Substance,MIC95 [µM]
1,H-LKPLLKPLLKPLLKPL-NH2,16
2,H-LKPLLKPLLKPLLKPLLKPL-NH2,2

# System: Escherichia coli
# Assay: Bactericidal activity against Escherichia coli 078 incubated for 4 hrs followed by culture spread on agar plates and cultured overnight
# Type: functional
# Conditions: Escherichia coli, 078, 4 h; read-out: MBC>99.9
row,Substance,MBC [µM]
1,H-LKPLLKPLLKPLLKPL-NH2,64
2,H-LKPLLKPLLKPLLKPLLKPL-NH2,8

# System: Escherichia coli
# Assay: Antimicrobial activity against Escherichia coli ATCC 25922 after 24 hrs by NCCLS-protocol based assay
# Type: functional
# Conditions: ATCC 25922, 24 h
row,Substance,MIC95 [µM]
1,H-LKPLLKPLLKPLLKPL-NH2,16
2,H-LKPLLKPLLKPLLKPLLKPL-NH2,2

# System: Pseudomonas aeruginosa
# Assay: Bactericidal activity against Pseudomonas aeruginosa PAO1 incubated for 4 hrs followed by culture spread on agar plates and cultured overnight
# Type: functional
# Conditions: PAO1, 4 h, read-out: MBC>99.9
row,Substance,MBC [µM]
1,H-LKPLLKPLLKPLLKPL-NH2,> 64
2,H-LKPLLKPLLKPLLKPLLKPL-NH2,> 64

# System: Salmonella typhimurium
# Assay: Bactericidal activity against Salmonella typhimurium C7731 incubated for 4 hrs followed by culture spread on agar plates and cultured overnight
# Type: functional, Salmonella enterica subsp. enterica serovar Typhimurium
# Conditions: Salmonella enterica, C7731, 4 h; read-out: MBC>99.9
row,Substance,MBC [µM]
1,H-LKPLLKPLLKPLLKPL-NH2,> 64
2,H-LKPLLKPLLKPLLKPLLKPL-NH2,16

# System: Klebsiella pneumoniae
# Assay: Bactericidal activity against Klebsiella pneumoniae incubated for 4 hrs followed by culture spread on agar plates and cultured overnight
# Type: functional
# Conditions: read-out: MBC>99.9
row,Substance,MBC [µM]
1,H-LKPLLKPLLKPLLKPL-NH2,> 64
2,H-LKPLLKPLLKPLLKPLLKPL-NH2,64

# System: Salmonella typhimurium
# Assay: Antimicrobial activity against Salmonella typhimurium C7731 after 24 hrs by NCCLS-protocol based assay
# Type: functional, Salmonella enterica subsp. enterica serovar Typhimurium
# Conditions: Salmonella enterica, C7731, 24 h
row,Substance,MIC95 [µM]
1,H-LKPLLKPLLKPLLKPL-NH2,> 64
2,H-LKPLLKPLLKPLLKPLLKPL-NH2,16

# System: Pseudomonas aeruginosa
# Assay: Antimicrobial activity against Pseudomonas aeruginosa PAO1 after 24 hrs by NCCLS-protocol based assay
# Type: functional
# Conditions: PAO1, 24 h
row,Substance,MIC95 [µM]
1,H-LKPLLKPLLKPLLKPL-NH2,> 64
2,H-LKPLLKPLLKPLLKPLLKPL-NH2,> 64

# System: Pseudomonas aeruginosa
# Assay: Bactericidal activity against Pseudomonas aeruginosa CICC 21625 clinical isolates incubated for 4 hrs followed by culture spread on agar plates and cultured overnight
# Type: functional
# Conditions: CICC 21625, 4 h, read-out: MBC>99.9
row,Substance,MBC [µM]
1,H-LKPLLKPLLKPLLKPL-NH2,> 64
2,H-LKPLLKPLLKPLLKPLLKPL-NH2,> 64

# System: Escherichia coli
# Assay: Antimicrobial activity against Escherichia coli K88 after 24 hrs by NCCLS-protocol based assay
# Type: functional
# Conditions: K88, 24 h
row,Substance,MIC95 [µM]
1,H-LKPLLKPLLKPLLKPL-NH2,16
2,H-LKPLLKPLLKPLLKPLLKPL-NH2,2

# System: Pseudomonas aeruginosa
# Assay: Antimicrobial activity against Pseudomonas aeruginosa 25349 clinical isolates after 24 hrs by NCCLS-protocol based assay
# Type: functional
# Conditions: Pseudomonas aeruginosa, 25349, 24 h
row,Substance,MIC95 [µM]
1,H-LKPLLKPLLKPLLKPL-NH2,> 64
2,H-LKPLLKPLLKPLLKPLLKPL-NH2,32

# System: Pseudomonas aeruginosa
# Assay: Antimicrobial activity against Pseudomonas aeruginosa ATCC 27853 after 24 hrs by NCCLS-protocol based assay
# Type: functional
# Conditions: ATCC 27853, 24 h
row,Substance,MIC95 [µM]
1,H-LKPLLKPLLKPLLKPL-NH2,> 64
2,H-LKPLLKPLLKPLLKPLLKPL-NH2,16

# System: Pseudomonas aeruginosa
# Assay: Antimicrobial activity against Pseudomonas aeruginosa CICC 21625 clinical isolates after 24 hrs by NCCLS-protocol based assay
# Type: functional
# Conditions: CICC 21625, 24 h
row,Substance,MIC95 [µM]
1,H-LKPLLKPLLKPLLKPL-NH2,> 64
2,H-LKPLLKPLLKPLLKPLLKPL-NH2,> 64

# System: Escherichia coli
# Assay: Bactericidal activity against Escherichia coli UB1005 incubated for 4 hrs followed by culture spread on agar plates and cultured overnight
# Type: functional
# Conditions: UB1005, 4 h, read-out: MBC>99.9
row,Substance,MBC [µM]
1,H-LKPLLKPLLKPLLKPL-NH2,64
2,H-LKPLLKPLLKPLLKPLLKPL-NH2,8

# System: Pseudomonas aeruginosa
# Assay: Bactericidal activity against Pseudomonas aeruginosa CICC 21630 clinical isolates incubated for 4 hrs followed by culture spread on agar plates and cultured overnight
# Type: functional
# Conditions: CICC 21630, 4 h, read-out: MBC>99.9
row,Substance,MBC [µM]
1,H-LKPLLKPLLKPLLKPL-NH2,> 64
2,H-LKPLLKPLLKPLLKPLLKPL-NH2,64

# System: Escherichia coli
# Assay: Antimicrobial activity against Escherichia coli UB1005 after 24 hrs by NCCLS-protocol based assay
# Type: functional
# Conditions: UB1005, 24 h
row,Substance,MIC95 [µM]
1,H-LKPLLKPLLKPLLKPL-NH2,16
2,H-LKPLLKPLLKPLLKPLLKPL-NH2,2

# System: Acinetobacter baumannii
# Assay: Antimicrobial activity against Acinetobacter baumannii after 24 hrs by NCCLS-protocol based assay
# Type: functional
# Conditions: not given
row,Substance,MIC95 [µM]
1,H-LKPLLKPLLKPLLKPL-NH2,4
2,H-LKPLLKPLLKPLLKPLLKPL-NH2,4

# System: Escherichia coli
# Assay: Bactericidal activity against Escherichia coli K99 incubated for 4 hrs followed by culture spread on agar plates and cultured overnight
# Type: functional
# Conditions: K99, 4 h, read-out: MBC>99.9
row,Substance,MBC [µM]
1,H-LKPLLKPLLKPLLKPL-NH2,32
2,H-LKPLLKPLLKPLLKPLLKPL-NH2,4

# System: Acinetobacter baumannii
# Assay: Bactericidal activity against Acinetobacter baumannii incubated for 4 hrs followed by culture spread on agar plates and cultured overnight
# Type: functional
# Conditions: read-out: MBC>99.9
row,Substance,MBC [µM]
1,H-LKPLLKPLLKPLLKPL-NH2,8
2,H-LKPLLKPLLKPLLKPLLKPL-NH2,4

# System: Salmonella typhimurium
# Assay: Bactericidal activity against Salmonella typhimurium ATCC 14028 incubated for 4 hrs followed by culture spread on agar plates and cultured overnight
# Type: functional, Salmonella enterica subsp. enterica serovar Typhimurium
# Conditions: Salmonella enterica, ATCC 14028, 4 h; read-out: MBC>99.9
row,Substance,MBC [µM]
1,H-LKPLLKPLLKPLLKPL-NH2,> 64
2,H-LKPLLKPLLKPLLKPLLKPL-NH2,16
